Assay results taken from patent publication US12653827B2, “Methods of treating indolent systemic mastocytosis” (Telios Pharma Inc., priority 2024, dated 2026).

Assays:
[1] = cited from earlier work
basophils = assay: Comparison of BTK inhibitors by BAT (CD63 and CD203c); type: cell-based, human; settings: concentration of 1 μM; 2 hours; blood from a healthy donor
Procedure: The BAT assay using the Flow Cast Basophil Activation Kit (Buhlmann Diagnostics; Catalog #B-CCR-STCON) was then conducted following manufacturer instructions by (1) stimulating the blood with anti-FcεR stimulation control in stimulation buffer with IL-3 and staining cells for CCR3 and CD63 for 15 minutes at 37° C., (2) lysing red blood cells and fixing cells with Lysing Reagent at room temperature for 10 minutes, (3) washing cells with Wash Buffer, and (4) acquiring data on a flow cytometer. Activated basophils were defined as CCR3+, low side scatter and CD63+. Percent of activated basophils was calculated as number of activated basophils over the total number of basophils. A four-parameter logistic regression was applied to determine the EC50 and EC90.
Blood samples were gently rocked at room temperature for 2 hours. […] Activated basophils were also defined as CCR3+, low side scatter and CD203c+.

mast cells = assay: Phosphorylation and degranulation markers in antigen-stimulated mast cells grown with chronic SCF (FIG. 21); type: cell-based; settings: 1 μM, antigen 15 minutes
Procedure: Histamine release, CD63 expression, CD203c expression, pBTK (Y223) levels, pP38 (T180/Y182) levels, pPLCg1 (S1248) levels, pERK (T202/Y204) levels, and pS6 (S235/236) levels are shown. Mast cells were grown with continuous (chronic) exposure to SCF and then stimulated with antigen (Ag) for 15 minutes, leading to phosphorylation of multiple kinases, including pBTK, pPLCγ1, pP38, pERK, and pS6 ribosome. This stimulation increases degranulation markers, including CD63, CD203c, and histamine release.

[2] = ISM patients, cited from earlier work

## Cc1nc(Nc2ncc(C(=O)Nc3c(C)cccc3Cl)s2)cc(N2CCN(CCO)CC2)n1 [dasatinib]
[1]; overall, AdvSM and ISM subjects
  subjects who discontinued treatment due to toxicity: 34%
[1]; patients overall
  pleural effusion, grade 3 adverse event: 10%

## CC#CC(=O)N1CCC[C@H]1c1nc(-c2ccc(C(=O)Nc3ccccn3)cc2)c2c(N)nccn12 [acalabrutinib, (S)-4-(8-amino-3-(1-(but-2-ynoyl)pyrrolidin-2-yl)imidazo[1,5-a]pyrazin-1-yl)-N-(pyridin-2-yl)benzamide, reference compound]
basophils
  effect on basophil activation (CD63+, CD203c+): no effect on basophil activation

## Cn1cc(-c2cc3c(N4CCN(c5ncc([C@@](C)(N)c6ccc(F)cc6)cn5)CC4)ncnn3c2)cn1 [avapritinib]
Mast cells
  phosphorylation and degranulation (activation): only partially inhibits activation
[2]; 25 mg QD, Week 24, ISM-SAF survey
  reduction of total symptom score compared to the placebo: 5.7 points
[2]; 25 mg QD
  adverse reactions leading to dose interruptions: 5%
[2]; first 6 months of treatment
  treated subjects who failed to achieve a mean symptom score reduction of 30%: approximately half
[2]; within the first 6 months of treatment
  subjects who achieved a 50% symptom score reduction: about a third
